From the NIST ThermoML archive (doi:10.1021/je4001894)
Numbers after ± are expanded uncertainties.

Assay: activity coefficient (dimensionless); of the first substance listed, at infinite dilution; xn = mol fraction of the nth substance listed
Settings: 101 kPa, Liquid, Chromatography, x1 = 0

SMILES	activity coefficient (323.15 K)	activity coefficient (333.15 K)	activity coefficient (343.15 K)
C=CCCCC [hex-1-ene] + CCC[N+]1(C)CCCC1.O=S(=O)([N-]S(=O)(=O)C(F)(F)F)C(F)(F)F	7.96 ± 0.54	7.75 ± 0.53	7.65 ± 0.52
CCCCCC [hexane] + CCCC[N+]1(C)CCCC1.O=S(=O)([N-]S(=O)(=O)C(F)(F)F)C(F)(F)F	13.9 ± 0.95	13.6 ± 0.93	12.6 ± 0.86
CCCCCC [hexane] + CCC[N+]1(C)CCCC1.O=S(=O)([N-]S(=O)(=O)C(F)(F)F)C(F)(F)F	16.5 ± 1.1	15 ± 1	14.1 ± 0.96
CO [methanol] + CCCC[N+]1(C)CCCC1.O=S(=O)([N-]S(=O)(=O)C(F)(F)F)C(F)(F)F	1.4 ± 0.09	1.28 ± 0.08	1.18 ± 0.08
CO [methanol] + CCC[N+]1(C)CCCC1.O=S(=O)([N-]S(=O)(=O)C(F)(F)F)C(F)(F)F	1.38 ± 0.09	1.28 ± 0.08	1.15 ± 0.07
CC1CCCCC1 [methylcyclohexane] + CCCC[N+]1(C)CCCC1.O=S(=O)([N-]S(=O)(=O)C(F)(F)F)C(F)(F)F	11.5 ± 0.79	10.7 ± 0.73	10.1 ± 0.69
CC1CCCCC1 [methylcyclohexane] + CCC[N+]1(C)CCCC1.O=S(=O)([N-]S(=O)(=O)C(F)(F)F)C(F)(F)F	14.1 ± 0.96	12.8 ± 0.87	12.2 ± 0.83
CC1CCCC1 [methylcyclopentane] + CCCC[N+]1(C)CCCC1.O=S(=O)([N-]S(=O)(=O)C(F)(F)F)C(F)(F)F	8.68 ± 0.59	8.24 ± 0.56	7.85 ± 0.54
CC1CCCC1 [methylcyclopentane] + CCC[N+]1(C)CCCC1.O=S(=O)([N-]S(=O)(=O)C(F)(F)F)C(F)(F)F	10.3 ± 0.7	10.3 ± 0.7	9.16 ± 0.63
C[N+](=O)[O-] [nitromethane] + CCCC[N+]1(C)CCCC1.O=S(=O)([N-]S(=O)(=O)C(F)(F)F)C(F)(F)F	0.65 ± 0.04	0.58 ± 0.04	0.57 ± 0.04
CCCCCCCCC [nonane] + CCCC[N+]1(C)CCCC1.O=S(=O)([N-]S(=O)(=O)C(F)(F)F)C(F)(F)F	42.7 ± 2.9	38.3 ± 2.6	34.7 ± 2.4
CCCCCCCCC [nonane] + CCC[N+]1(C)CCCC1.O=S(=O)([N-]S(=O)(=O)C(F)(F)F)C(F)(F)F	55.5 ± 3.8	48.7 ± 3.3	47.5 ± 3.2
CCCCCCCC [octane] + CCCC[N+]1(C)CCCC1.O=S(=O)([N-]S(=O)(=O)C(F)(F)F)C(F)(F)F	28.2 ± 1.9	25.3 ± 1.7	23.5 ± 1.6
CCCCCCCC [octane] + CCC[N+]1(C)CCCC1.O=S(=O)([N-]S(=O)(=O)C(F)(F)F)C(F)(F)F	35.8 ± 2.5	31.1 ± 2.1	30.6 ± 2.1
CCCC(C)=O [pentan-2-one] + CCCC[N+]1(C)CCCC1.O=S(=O)([N-]S(=O)(=O)C(F)(F)F)C(F)(F)F	0.8 ± 0.05	0.81 ± 0.05	0.82 ± 0.05
CCCC(C)=O [pentan-2-one] + CCC[N+]1(C)CCCC1.O=S(=O)([N-]S(=O)(=O)C(F)(F)F)C(F)(F)F	0.88 ± 0.06	0.88 ± 0.06	0.91 ± 0.06
CCC(=O)CC [pentan-3-one] + CCCC[N+]1(C)CCCC1.O=S(=O)([N-]S(=O)(=O)C(F)(F)F)C(F)(F)F	0.73 ± 0.05	0.75 ± 0.05	0.77 ± 0.05
CCC(=O)CC [pentan-3-one] + CCC[N+]1(C)CCCC1.O=S(=O)([N-]S(=O)(=O)C(F)(F)F)C(F)(F)F	0.84 ± 0.05	0.82 ± 0.05	0.86 ± 0.06
CCCO [propan-1-ol] + CCCC[N+]1(C)CCCC1.O=S(=O)([N-]S(=O)(=O)C(F)(F)F)C(F)(F)F	2.07 ± 0.14	1.87 ± 0.13	1.68 ± 0.11
